Data on 2 compounds can be found in article PMC5799307, “Creation of a long-acting nanoformulated dolutegravir” (Nature Communications, 2018).

The subject of series [1] is HIV-1. The arrangement: method as in PMID 21115794. The conditions noted are these: cited from earlier work.
Series [2] is described as follows: Aqueous solubility (excess drug in water, room temperature, overnight, UPLC). The format is physicochemical. The protocol: (§1) A lipophilic and hydrophobic modified DTG prodrug (called MDTG) was synthesized through myristoylation of the parent drug hydroxyl group. Initially, DTG was dried by co-evaporation from anhydrous pyridine then resuspended in anhydrous DMF and cooled to 0 °C under argon. 2-equivalents DIEA were used to deprotonate the 7-hydroxyl group of DTG, which was then immediately reacted with 2 equivalents myristoyl chloride for 24 h. The resultant product was purified by silica gel column chromatography using an initial mobile phase of 4:1 ethyl acetate: hexanes for 12 fractions, then 9:1 ethyl acetate: hexanes for the remainder. […] ESI-MS specifics (m/z): calculated for C34H45F2N3O6, 629.33 (100%), 630.33 (36.8%), 631.33 (3.9%); found, 630.30. […] The aqueous solubility of DTG and MDTG was evaluated by adding excess drug to water at room temperature then mixing it overnight. […] Solubilized drug in the supernatant was extracted in methanol and measured using a Waters ACQUITY ultra performance liquid chromatography (UPLC) H-Class System with TUV detector and Empower 3 software (Milford, MA). For DTG and MDTG quantitation, drug extracts were separated on a Phenomenex Kinetex 5 μm C18 column (150 × 4.6 mm) (Torrance, CA) using either 65% 50 mM KH2PO4, pH 3.2/35% ACN (DTG) or 90% ACN/10% water (MDTG) with a flow rate of 1.0 mL/min and detected at 254 nm and 230 nm, respectively. […]

The nature of series [3]: Ex vivo cleavage kinetics of MDTG in mouse whole blood. The format is in vitro ADME. The conditions noted are these: after 60 min. As to the method:
as §1, with “remainder. Once purified, fractions containing the UV active prodrug were dried and precipitated from diethyl ether. The precipitate was collected by centrifugation at 3500 r.p.m. for 15 min and dried under vacuum, while the supernatant was discarded. MDTG was synthesized at a final drug yield of 82.8%. Proton nuclear magnetic resonance (^1H NMR), carbon nuclear magnetic resonance (^13C NMR), and Fourier-transform infrared (FTIR) spectroscopy, positive electrospray ionization mass spectroscopy (ESI-MS), and powder X-ray diffraction (XRD) were used to characterize the structure of MDTG.” for “remainder.”, “respectively. Drug content was quantitated by comparison of peak area to those of known standards (0.05–50 µg/mL). Ex vivo cleavage kinetics of MDTG was assessed in mouse whole blood.” for “respectively.”

Consider `C[C@@H]1CCO[C@H]2Cn3cc(C(=O)NCc4ccc(F)cc4F)c(=O)c(O)c3C(=O)N12` [DTG, dolutegravir], for which the “protein-adjusted inhibitory concentration90 (PA-IC90)” value in series [1] is 0.064 µg/mL.

Regarding `CCCCCCCCCCCCCC(=O)Oc1c2n(cc(C(=O)NCc3ccc(F)cc3F)c1=O)C[C@@H]1OCC[C@@H](C)N1C2=O` [MDTG], the “decrease in aqueous solubility compared to DTG” value in series [2] is recorded as 8.7 fold. For the same compound, the MDTG cleaved in series [3] (after acetonitrile (ACN) addition) is 21.9%; in series [3] (whole blood, room temperature), 79.9%. Further, the results for the MDTG hydrolyzed in series [3] (blood diluted ten-fold) and in series [3] (blood spiked with an esterase inhibitor) were 88.7% and 15.2%, respectively.
